Assay results reported in PMC11294338 (Nature Communications, 2024).

Assays:
[1] = test system: SARS-CoV-2 (USA-WA1/2020) replicon in HuH-7 cells; type: cell-based
SARS-CoV-2 [2] = conditions: in vivo; cited from earlier work
SARS-CoV-2 [3] = conditions: human, in vivo; cited from earlier work

With `CC(C)(C)[C@H](NC(=O)C(F)(F)F)C(=O)N1C[C@H]2[C@@H]([C@H]1C(=O)N[C@H](C#N)C[C@@H]1CCNC1=O)C2(C)C` [Nirmatrelvir] the EC50 [1] was 0.015 µM.

For `CC(C)C(=O)OC[C@H]1O[C@@H](n2ccc(NO)nc2=O)[C@H](O)[C@@H]1O` [molnupiravir], the “transmission to untreated contact animals” value (SARS-CoV-2 [2]) is given as “prevented such transmission” and the “post-exposure prophylactic prevention of transmission versus placebo” value (SARS-CoV-2 [3]) is given as “neither was able to reach statistical significance over placebo”.
